Literature values, collected in patent publication US20210195875A1 (SMC GLOBAL ASSET, INC., priority 2016, published 2021).
“Also recorded” adds a separate entry of the source.

Assays:
[1] = test system: dopaminergic neuron
[2] = test system: mice; conditions: icv STZ alone

## Cn1c(N)nc2ncc(-c3ccccc3)cc21 [PhIP, 2-amino-1-methyl-6-phenyl-1H-imidazo[4,5-b] pyridine]
[1]
  toxicity in rat primary cultured cells: toxicity in a dopaminergic neuron selective manner; also recorded: toxicity in a dopamine nerve selective manner

## CN(N=O)C(=O)N[C@H]1C(O)O[C@H](CO)[C@@H](O)[C@@H]1O (mixture of isomers) [icv STZ, streptozotocin]
[2]
  aggregation of a pathologic protein such as amyloid and tau: no aggregation of a pathologic protein
[2]; compared with a gene modified model
  inflammation and neural function disorder: intense inflammation and neural function disorder
